# Laboratory results reported in US8765720B2, “Combination therapy for the treatment of multiple myeloma” (Cephalon, Inc., priority 2009, dated 2014).
# Experiments:
# [1] = in vitro; settings: human
# Description: (§1) The human myeloma cell line RPMI8226 was obtained from American Type Culture Collection (Rockville, Md.). The MM1S myeloma cell line was provided by Dr. Steven Rosen (Northwestern University, Chicago, Ill.). Normal peripheral blood mononuclear cells (PBMCs) were isolated by Histopaque® density gradient centrifugation, according to the manufacturer's protocol (Sigma-Aldrich, St. Louis, Mo.). Myeloma cell lines and PBMCs were maintained in RPMI 1640 (Omega Scientific, Tarzana, Calif.) supplemented with 10% fetal bovine serum, 2 mM L-glutamine, 100 IU/mL penicillin, 100 μg/mL streptomycin, and essential amino acids in an atmosphere of 5% carbon dioxide (CO2) at 37° C.
# (§2) Cells were seeded at 10^5 cells/100 μL/well in 96-well plates and incubated for 24 hours. RPMI8226 and MM1S cells were cultured in the presence of vehicle, COMPOUND 1, bortezomib, melphalan, COMPOUND 1+bortezomib, or COMPOUND 1+melphalan for 48 hours. After the incubation period, cell viability was quantified using the CellTiter 96® AQueous Non-Radioactive Cell Proliferation Assay (Promega, Madison, Wis.). Each well was treated with MTS (3-(4,5-dimethylthiazol-2-yl)-5-(3-carboxymethoxyphenyl)-2-(4-sulfophenyl)-2H-tetrazolium, inner salt) for 1 to 4 hours, after which absorbance was recorded at 490 nm. The quantity of formazan product as measured by absorbance at 490 nm is directly proportional to the number of living cells in culture.
# (§3) In order for therapy with two or more PIs to be feasible in vivo, the combination must spare non-neoplastic cells. […] A healthy donor's PBMCs were cultured for 48 hours in the presence of COMPOUND 1 alone, bortezomib alone, or both agents together, and cell viability was quantified by MTS assay.
# [2] = system: normal peripheral blood mononuclear cells (PBMCs); assay: in vitro
# Description: as §1, §2, §3
# [3] = system: RPMI8226 cells; assay: Cell viability assay (MTS assay), RPMI8226 cells; assay type: cell-based, human; settings: RPMI8226, 48 hours
# Protocol: Combination indices (CIs) were calculated separately for each combination. […] CIs between 0.9 and 1.1 were considered to indicate additive drug effects (31).
# [4] = system: LAGκ-1B tumor; assay: Intramuscular LAGκ-1B tumor xenograft model (tumor volume); settings: for delay of tumor volume growth to 300 mm^3: oral 5 mg/kg daily; for delay of tumor volume at 220 mm^3 / Percentage T/C: oral 10 mg/kg twice weekly
# Protocol: Six- to 8-week-old male severe combined immunodeficient (SCID) mice were obtained from the Jackson Laboratory (Bar Harbor, Me.) and maintained in a specific pathogen-free area in our animal resources facility. All animal studies were conducted according to protocols approved by the Institutional Animal Care and Use Committee. Animals were anesthetized with ketamine, xylazine, and isoflurane prior to surgery and were euthanized when tumors reached 2 cm in diameter.
# Biopsy tissue was surgically implanted in the hind limbs of anesthetized SCID mice and passaged through succeeding generations (32).
# Myeloma tumors (LAGκ-1A or LAGκ-1B) were excised from an anesthetized donor mouse, sectioned into 20 to 40 mm^3 pieces, and surgically implanted into the left superficial gluteal muscle of anesthetized naive SCID mice. Recipient mice received weekly injections of anti-asialo GM1 rabbit serum (Wako Bioproducts, Richmond, Va.) to further suppress immune activity. Mice were blindly assigned to one of the experimental groups, and treatment was initiated 7 to 21 days after tumor implantation. COMPOUND 1 was administered via oral gavage daily (0.5-5.0 mg/kg) or twice weekly (5-10 mg/kg). COMPOUND 1 was also administered twice weekly (W, F) via either IV injection (0.5-3.0 mg/kg) or oral gavage (10 mg/kg), as specified. […] Bortezomib (0.5 mg/kg) was dispensed twice weekly (T, Th) via IV injection. Control treatment consisted of COMPOUND 1 diluent (3.2 mL 5% mannitol and 800 μL propylene glycol) alone.
# As a direct measurement of tumor growth, calipers were used to assess tumor volume weekly, and the formula for an ellipsoid volume was applied ( 4/3π×[width/2]^2×[length/2]).
# Percent inhibition of tumor growth is represented as the tumor volume of the test drug group over the tumor volume of the untreated group (T/C). The optimal value is the minimal T/C ratio that reflects the maximal tumor growth inhibition achieved. The criterion for efficacy for the T/C ratio is ≦42%, according to National Cancer Institute (NCI) standard criteria (44).
# Efficacy of drug therapy against tumors was standardized to the time (t) required for the untreated tumor to grow to a determined size based on the greatest difference in time to reach a tumor volume between the control and treatment group. This value can be represented as the growth delay (in days) between treated and control (tt−tc) (44).
# Tumor growth and hIgG levels were analyzed in terms of treatment group means and standard error. Student's t-test was applied to determine the statistical significance of differences between treatment groups. Minimal significance level was P<0.05.
# [5] = bortezomib 0.5 mg/kg IV, COMPOUND 1 1 mg/kg IV, alone or together
smiles,measurement,setting,value
"CC(C)C[C@H](NC(=O)[C@@H](NC(=O)c1cccc(-c2ccccc2)n1)[C@@H](C)O)B(O)O [COMPOUND 1, [(1R)-1-[[(2S,3R)-3-hydroxy-2-[6-phenyl-pyridine-2-carbonyl)amino]-1-oxobutyl]amino]-3-methylbutylboronic acid]","viability at 48 h, 0.009 µM",[1],~75%
same,cytotoxic effects on normal PBMCs,[2],negligible cytotoxic effects
same,IC50,"[3]; Homo sapiens, RPMI-8226",8.5 nM
same,cytotoxicity at 0.009 µM,"[3]; Homo sapiens, RPMI-8226, single-agent COMPOUND 1 9.0 nM, read-out: decrease in cell viability",64%
same,inhibition of viability,[3]; COMPOUND 1 0.1-10 nM,concentration-dependent inhibition of viability
same,"tumors, times smaller than control-treated mice","[4]; 3 mg/kg IV or 10 mg/kg oral twice weekly, after 14 days, P=0.0008 / P=0.0028",8 to 12 times
same,days to tumor progression,[4]; [5],35 days
same,survival longer than vehicle-treated mice,[4]; [5],20%
same,tumor growth vs vehicle,"[4]; bortezomib 0.5 mg/kg IV, COMPOUND 1 1 mg/kg IV, alone or together, combination after 21 days P=0.0014",only modestly suppresses
same,drug-related / toxicity-related deaths,"[4]; by day 70, bortezomib 0.5 mg/kg IV, COMPOUND 1 1 mg/kg IV, alone or together",one death each
same,tumor volume,"[4]; mouse, in vivo",partially inhibited
same,body weight,"[4]; mouse, in vivo, po",without significant loss of body weight
same,tumor volume inhibition,"[4]; oral 5 mg/kg daily or 10 mg/kg twice weekly, day 35, P=0.0327 / P=0.0018",significant tumor volume inhibition
same,delay of tumor volume growth to 300 mm^3,[4]; day 31 control vs day 42,11 days
same,delay of tumor volume growth to 300 mm^3,[4]; vs no treatment,35.5%
same,delay of tumor volume at 220 mm^3,[4]; day 28 control vs day 42,14 days
same,Percentage T/C,[4]; day 35,21.6%
same,Percentage T/C,[4]; day 42,27.5%
same,Percentage T/C,[4]; day 49,26.1%
same,Percentage T/C,[4]; day 56,30.5%
same,delay of tumor volume at 220 mm^3,[4]; vs untreated control,50%
